# Where two headings read alike, the source gives them in different places.
# Experiment: Tissue distribution of radioactivity after intravenous administration (Table 6)
# Assay type: in vivo, Sprague Dawley rats
# Conditions: rat, i.v., mean (range) of 4 rats; for tissue uptake at 0.5 h: 30 min; for tissue uptake at 1 h: 60 min; for tissue uptake at 2 h: 120 min
# Excerpt: Distribution of Radioactivity in Tissues of Unfasted Male
# Sprague Dawley Rats Following Intravenous Administration
# of (+)-Trans-1,2,3,5,6,10b-hexahydro-6-
# [4-iodophenyl]-pyrrolo[2,1-a]isoquinoline
# Mean % Injected Dose/Gram (Range of 4 rats +/SD)
# [1] = blood, read-out: Blood, mean % injected dose/gram
# [2] = brain, read-out: Brain, mean % injected dose/gram
# [3] = heart, read-out: Heart, mean % injected dose/gram
# [4] = kidney, read-out: Kidney, mean % injected dose/gram
# [5] = liver, read-out: Liver, mean % injected dose/gram
# [6] = lung, read-out: Lung, mean % injected dose/gram
# [7] = muscle, read-out: Muscle, mean % injected dose/gram
# [8] = spleen, read-out: Spleen, mean % injected dose/gram
# [9] = thyroid, read-out: Thyroid, mean % injected dose/gram
compound,measurement,setting,value
"Ic1ccc([C@@H]2CN3CCC[C@@H]3c3ccccc32)cc1 [(+)-Trans-1,2,3,5,6,10b-hexahydro-6-[4-iodophenyl]-pyrrolo[2,1-a]isoquinoline]",tissue uptake at 0.5 h,[1],0.24 %ID/g
same,tissue uptake at 1 h,[1],0.3 %ID/g
same,tissue uptake at 2 h,[1],0.21 %ID/g
same,tissue uptake at 0.5 h,[2],0.85 %ID/g
same,tissue uptake at 1 h,[2],0.7 %ID/g
same,tissue uptake at 2 h,[2],0.43 %ID/g
same,tissue uptake at 0.5 h,[3],0.55 %ID/g
same,tissue uptake at 1 h,[3],0.51 %ID/g
same,tissue uptake at 2 h,[3],0.47 %ID/g
same,tissue uptake at 0.5 h,[4],0.84 %ID/g
same,tissue uptake at 1 h,[4],0.66 %ID/g
same,tissue uptake at 2 h,[4],0.79 %ID/g
same,tissue uptake at 0.5 h,[5],1.62 %ID/g
same,tissue uptake at 1 h,[5],1.26 %ID/g
same,tissue uptake at 2 h,[5],1.18 %ID/g
same,tissue uptake at 0.5 h,[6],1.53 %ID/g
same,tissue uptake at 1 h,[6],1.28 %ID/g
same,tissue uptake at 2 h,[6],0.92 %ID/g
same,tissue uptake at 0.5 h,[7],0.27 %ID/g
same,tissue uptake at 1 h,[7],0.26 %ID/g
same,tissue uptake at 2 h,[7],0.27 %ID/g
same,tissue uptake at 0.5 h,[8],1 %ID/g
same,tissue uptake at 1 h,[8],0.74 %ID/g
same,tissue uptake at 2 h,[8],0.54 %ID/g
same,tissue uptake at 0.5 h,[9],1.07 %ID/g
same,tissue uptake at 1 h,[9],1.5 %ID/g
same,tissue uptake at 2 h,[9],1.04 %ID/g

# Reference: patent US6162417A, “Pyrrolo isoquinolines” (Emory University, priority 1998, dated 2000)
